Laboratory results reported in US6573230B1, “Liquid cleaning composition containing an effective biodegradable chelating agent” (Colgate-Palmolive Company, priority 2002, dated 2003).

How the values were obtained:
[1] = pH / physical stability on ageing; format: physicochemical; details: stable pH and absence of discoloration
[2] = Ready biodegradability of the sequestering agent; details: sequestering agent of the composition: A EDDS, B gluconic acid, C IDS Na, D EDTA

Row | SMILES | pH Physical stability on ageing [1] | Biodegradability of sequestering agent (ready biodegradability) [2]
1 | O=C(O)C[C@H](NCCN[C@@H](CC(=O)O)C(=O)O)C(=O)O [EDDS, trisodium ethylene diamine-N,N-disuccinate] | imparting product physical stability | biodegradable
2 | O=C(O)CN(CCN(CC(=O)O)CC(=O)O)CC(=O)O [EDTA, ethylene diamine tetraacetate] |  | non-ready biodegradable
